Experimental data as given in ChEMBL document CHEMBL5042544, “Discovery of a Potent and Selective ATAD2 Bromodomain Inhibitor with Antiproliferative Activity in Breast Cancer Models” (J Med Chem, 2022).
Calls of active or inactive are those of the source. The rule behind the calls is not given here.

Key:
[1] = Distribution coefficient, logD of compound at pH 7.4; assay type: physicochemical; conditions: octanol/water
SK-BR-3 [2] = experiment: Antiproliferative activity against human SK-BR-3 cells expressing ATAD2 assessed as inhibition of colony formation at 0.01 to 10 uM measured after 14 to 21 days by AlamarBlue staining based colony formation assay; assay type: functional, cell-based; conditions: dose 0.01-10 µM, time 14-21 day
[3] = target: Bromodomain adjacent to zinc finger domain protein 2B (Homo sapiens) (UniProt Q9UIF8); experiment: Binding affinity to human BAZ2B bromodomain assessed as residual activity at 300 nM by BROMOscan method relative to control
[4] = target: Bromodomain testis-specific protein (Homo sapiens, UniProt Q58F21); experiment: Binding affinity to human BRDT bromodomain 1 assessed as dissociation constant by BROMOscan method
MDA-MB-468 = experiment: Antiproliferative activity against human MDA-MB-468 cells expressing ATAD2 assessed as inhibition of colony formation at 0.01 to 10 uM measured after 14 to 21 days by AlamarBlue staining based colony formation assay; assay type: functional, cell-based; conditions: dose 0.01-10 µM, time 14-21 day
[5] = target: T1, Bromodomain-containing protein 4 (Homo sapiens, UniProt O60885); experiment: Binding affinity to human BRD4 bromodomain 2 assessed as residual activity at 300 nM by BROMOscan method relative to control
[6] = target: Bromodomain-containing protein 2 (Homo sapiens, UniProt P25440); experiment: Binding affinity to human BRD2 bromodomain 2 assessed as residual activity at 300 nM by BROMOscan method relative to control
[7] = target: Transcription initiation factor TFIID subunit 1 (Homo sapiens, UniProt P21675); experiment: Binding affinity to human TAF1 bromodomain 2 assessed as dissociation constant by BROMOscan method
Chain of Transcription initiation factor TFIID subunit 1 (P21675 whole entry): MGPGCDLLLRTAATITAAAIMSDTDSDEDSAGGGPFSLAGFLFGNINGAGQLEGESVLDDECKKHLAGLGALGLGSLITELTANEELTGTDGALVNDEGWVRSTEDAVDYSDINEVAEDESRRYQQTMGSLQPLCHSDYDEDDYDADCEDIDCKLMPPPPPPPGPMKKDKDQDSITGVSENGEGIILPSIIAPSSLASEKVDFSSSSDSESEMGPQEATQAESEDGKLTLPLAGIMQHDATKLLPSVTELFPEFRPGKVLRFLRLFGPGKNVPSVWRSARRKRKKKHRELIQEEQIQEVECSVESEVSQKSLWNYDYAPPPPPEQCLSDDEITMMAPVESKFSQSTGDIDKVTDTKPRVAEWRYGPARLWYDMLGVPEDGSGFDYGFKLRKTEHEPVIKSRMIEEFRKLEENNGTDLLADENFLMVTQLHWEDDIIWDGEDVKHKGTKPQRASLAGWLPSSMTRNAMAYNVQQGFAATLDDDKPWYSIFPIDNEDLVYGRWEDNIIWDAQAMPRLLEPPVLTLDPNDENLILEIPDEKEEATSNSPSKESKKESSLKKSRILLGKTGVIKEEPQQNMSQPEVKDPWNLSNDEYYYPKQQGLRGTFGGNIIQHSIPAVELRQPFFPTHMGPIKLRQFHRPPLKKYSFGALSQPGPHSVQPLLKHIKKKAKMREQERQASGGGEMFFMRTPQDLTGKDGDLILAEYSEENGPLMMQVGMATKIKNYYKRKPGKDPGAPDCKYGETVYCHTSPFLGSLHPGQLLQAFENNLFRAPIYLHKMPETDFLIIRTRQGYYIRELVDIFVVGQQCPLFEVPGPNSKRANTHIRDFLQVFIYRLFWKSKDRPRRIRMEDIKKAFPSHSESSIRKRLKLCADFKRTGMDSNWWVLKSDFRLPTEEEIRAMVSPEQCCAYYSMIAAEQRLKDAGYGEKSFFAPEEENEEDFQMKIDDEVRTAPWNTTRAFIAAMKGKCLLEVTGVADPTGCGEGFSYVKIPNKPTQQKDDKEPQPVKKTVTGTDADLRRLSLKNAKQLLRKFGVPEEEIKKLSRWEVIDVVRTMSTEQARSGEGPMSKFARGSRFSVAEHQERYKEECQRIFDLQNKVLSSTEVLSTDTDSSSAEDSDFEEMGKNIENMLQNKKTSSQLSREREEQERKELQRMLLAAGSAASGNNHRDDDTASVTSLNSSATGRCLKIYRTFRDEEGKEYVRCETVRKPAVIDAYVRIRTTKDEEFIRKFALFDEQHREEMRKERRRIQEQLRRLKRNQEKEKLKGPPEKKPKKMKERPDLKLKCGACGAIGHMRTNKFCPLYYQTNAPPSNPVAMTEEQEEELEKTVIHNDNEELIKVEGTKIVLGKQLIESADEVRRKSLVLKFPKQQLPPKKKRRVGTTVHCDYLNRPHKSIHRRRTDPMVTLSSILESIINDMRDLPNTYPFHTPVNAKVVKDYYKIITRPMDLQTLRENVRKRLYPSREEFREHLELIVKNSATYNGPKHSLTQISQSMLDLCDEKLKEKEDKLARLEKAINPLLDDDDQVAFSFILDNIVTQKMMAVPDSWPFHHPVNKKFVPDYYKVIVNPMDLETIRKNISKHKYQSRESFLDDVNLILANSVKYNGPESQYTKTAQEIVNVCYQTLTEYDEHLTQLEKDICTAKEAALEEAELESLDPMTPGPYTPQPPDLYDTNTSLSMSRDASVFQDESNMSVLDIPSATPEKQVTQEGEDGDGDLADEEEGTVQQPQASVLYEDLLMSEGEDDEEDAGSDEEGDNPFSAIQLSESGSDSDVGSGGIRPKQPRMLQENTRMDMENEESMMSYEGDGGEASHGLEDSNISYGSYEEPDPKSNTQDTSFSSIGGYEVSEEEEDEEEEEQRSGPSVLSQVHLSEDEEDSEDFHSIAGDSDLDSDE

[8] = target: Nucleosome-remodeling factor subunit BPTF (Homo sapiens, UniProt Q12830); experiment: Binding affinity to human FALZ bromodomain by BROMOscan method
[9] = target: Transcription initiation factor TFIID subunit 1-like (Homo sapiens) (UniProt Q8IZX4); experiment: Binding affinity to human TAF1L bromodomain 2 assessed as residual activity at 300 nM by BROMOscan method relative to control
[10] = target: T1, Bromodomain-containing protein 4; experiment: Binding affinity to human BRD4 bromodomain 1 assessed as residual activity at 300 nM by BROMOscan method relative to control
Homo sapiens [11] = species on record: Homo sapiens; experiment: Selectivity ratio of IC50 for Inhibition of […] GST-ATAD2 BD (981 to 1108 residues) (unknown origin) expressed in Escherichia coli BL21 (DE3) to IC50 for Halo-tagged Histone H3.3 from Nanoluc-ATAD2 BD ([…] residues) (unknown origin) transfected in human HCT116 cells
Homo sapiens [12] = species on record: Homo sapiens; experiment: Binding affinity to human ATAD2A assessed as residual activity at 300 nM by BROMOscan method relative to control
Protein polybromo-1 = Protein polybromo-1 (Homo sapiens, UniProt Q86U86); experiment: Binding affinity to human PBRM1 bromodomain 2 assessed as residual activity at 300 nM by BROMOscan method relative to control
Chain of Protein polybromo-1 (Q86U86 whole entry, the tested form may be a part): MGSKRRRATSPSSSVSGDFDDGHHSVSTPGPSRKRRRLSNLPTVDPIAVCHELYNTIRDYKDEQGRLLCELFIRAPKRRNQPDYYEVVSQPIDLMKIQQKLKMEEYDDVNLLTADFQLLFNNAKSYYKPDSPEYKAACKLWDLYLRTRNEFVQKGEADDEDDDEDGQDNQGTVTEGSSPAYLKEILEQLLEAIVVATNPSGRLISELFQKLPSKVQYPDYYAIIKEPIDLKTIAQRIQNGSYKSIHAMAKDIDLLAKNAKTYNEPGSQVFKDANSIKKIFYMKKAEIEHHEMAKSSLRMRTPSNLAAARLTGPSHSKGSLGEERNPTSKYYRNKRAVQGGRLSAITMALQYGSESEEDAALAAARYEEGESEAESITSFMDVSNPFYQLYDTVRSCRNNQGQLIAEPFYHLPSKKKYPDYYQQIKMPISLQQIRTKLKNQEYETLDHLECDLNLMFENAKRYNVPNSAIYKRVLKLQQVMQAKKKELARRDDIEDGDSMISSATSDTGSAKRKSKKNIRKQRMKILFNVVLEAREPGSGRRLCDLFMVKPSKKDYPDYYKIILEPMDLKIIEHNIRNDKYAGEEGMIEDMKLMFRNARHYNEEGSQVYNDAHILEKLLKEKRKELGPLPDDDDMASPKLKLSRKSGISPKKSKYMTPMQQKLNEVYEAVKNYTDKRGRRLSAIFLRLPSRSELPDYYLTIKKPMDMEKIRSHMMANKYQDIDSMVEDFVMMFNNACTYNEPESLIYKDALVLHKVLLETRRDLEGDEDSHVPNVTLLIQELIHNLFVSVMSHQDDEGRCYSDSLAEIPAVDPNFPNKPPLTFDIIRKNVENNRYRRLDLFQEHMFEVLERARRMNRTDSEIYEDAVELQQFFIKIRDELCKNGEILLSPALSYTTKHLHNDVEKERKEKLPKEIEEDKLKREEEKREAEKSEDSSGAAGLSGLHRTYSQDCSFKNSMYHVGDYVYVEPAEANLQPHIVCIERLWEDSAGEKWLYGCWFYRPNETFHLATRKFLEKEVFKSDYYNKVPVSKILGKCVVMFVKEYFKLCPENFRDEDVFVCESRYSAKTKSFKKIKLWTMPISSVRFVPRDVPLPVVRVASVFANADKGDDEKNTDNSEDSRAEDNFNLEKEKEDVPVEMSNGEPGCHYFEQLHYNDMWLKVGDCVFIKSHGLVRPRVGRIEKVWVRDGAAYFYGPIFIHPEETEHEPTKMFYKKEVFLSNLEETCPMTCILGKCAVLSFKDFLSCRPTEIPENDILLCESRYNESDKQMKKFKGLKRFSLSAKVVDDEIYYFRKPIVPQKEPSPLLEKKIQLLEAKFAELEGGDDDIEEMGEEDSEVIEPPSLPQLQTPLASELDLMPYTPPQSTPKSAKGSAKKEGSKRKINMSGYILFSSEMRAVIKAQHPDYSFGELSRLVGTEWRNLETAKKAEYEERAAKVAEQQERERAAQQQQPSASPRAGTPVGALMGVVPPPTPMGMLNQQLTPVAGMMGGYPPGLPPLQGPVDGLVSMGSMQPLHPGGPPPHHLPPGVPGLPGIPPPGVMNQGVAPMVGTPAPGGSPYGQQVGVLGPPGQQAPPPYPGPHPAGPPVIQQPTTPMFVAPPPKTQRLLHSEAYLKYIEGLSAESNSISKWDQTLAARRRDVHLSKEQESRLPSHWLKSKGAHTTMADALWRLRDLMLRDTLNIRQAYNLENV

[13] = target: ATPase family AAA domain-containing protein 2B (Homo sapiens, UniProt Q9ULI0); experiment: Binding affinity to human ATAD2B bromodomain assessed as dissociation constant by BROMOscan method
Chain of ATPase family AAA domain-containing protein 2B (Q9ULI0 whole entry, the tested form may be a part): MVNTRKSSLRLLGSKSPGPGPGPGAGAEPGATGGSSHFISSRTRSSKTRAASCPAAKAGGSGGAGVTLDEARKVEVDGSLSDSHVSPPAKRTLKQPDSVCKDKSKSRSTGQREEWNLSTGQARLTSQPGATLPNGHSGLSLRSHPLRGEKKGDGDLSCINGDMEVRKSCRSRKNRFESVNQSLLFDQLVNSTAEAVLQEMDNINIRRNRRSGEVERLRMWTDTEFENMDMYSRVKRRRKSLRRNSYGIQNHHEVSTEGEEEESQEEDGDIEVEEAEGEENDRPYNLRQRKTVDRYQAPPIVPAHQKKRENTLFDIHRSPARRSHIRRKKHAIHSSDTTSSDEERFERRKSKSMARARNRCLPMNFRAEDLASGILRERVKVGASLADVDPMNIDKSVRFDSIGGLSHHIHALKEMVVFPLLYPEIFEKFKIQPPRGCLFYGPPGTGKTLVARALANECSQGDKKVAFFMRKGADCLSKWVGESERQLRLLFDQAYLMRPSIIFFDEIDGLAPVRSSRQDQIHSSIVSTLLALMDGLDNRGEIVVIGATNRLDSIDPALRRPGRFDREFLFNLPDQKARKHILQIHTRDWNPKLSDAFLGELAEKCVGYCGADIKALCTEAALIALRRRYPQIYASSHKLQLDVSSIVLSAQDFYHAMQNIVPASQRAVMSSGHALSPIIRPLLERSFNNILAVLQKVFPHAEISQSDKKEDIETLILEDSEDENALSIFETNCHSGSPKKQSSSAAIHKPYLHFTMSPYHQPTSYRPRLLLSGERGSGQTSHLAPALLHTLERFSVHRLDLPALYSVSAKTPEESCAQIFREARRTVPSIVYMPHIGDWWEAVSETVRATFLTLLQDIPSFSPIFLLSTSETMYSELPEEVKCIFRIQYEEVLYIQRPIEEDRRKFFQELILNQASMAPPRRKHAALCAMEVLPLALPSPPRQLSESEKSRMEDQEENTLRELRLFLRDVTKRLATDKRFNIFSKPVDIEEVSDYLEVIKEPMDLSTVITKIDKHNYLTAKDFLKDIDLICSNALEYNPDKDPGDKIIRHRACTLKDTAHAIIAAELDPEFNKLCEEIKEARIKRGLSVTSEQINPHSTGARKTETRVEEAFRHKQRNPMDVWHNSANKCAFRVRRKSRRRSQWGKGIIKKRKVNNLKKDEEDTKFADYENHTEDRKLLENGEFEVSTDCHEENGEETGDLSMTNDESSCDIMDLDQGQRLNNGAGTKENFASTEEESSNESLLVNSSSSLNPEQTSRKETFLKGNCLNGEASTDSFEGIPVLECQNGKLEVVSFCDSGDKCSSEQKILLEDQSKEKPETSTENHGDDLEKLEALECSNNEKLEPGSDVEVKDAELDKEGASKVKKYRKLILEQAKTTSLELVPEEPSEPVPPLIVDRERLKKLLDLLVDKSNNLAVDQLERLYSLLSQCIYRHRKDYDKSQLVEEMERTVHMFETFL

[14] = target: SWI/SNF-related matrix-associated actin-dependent regulator of chromatin subfamily A member 4 (Homo sapiens) (UniProt P51532); experiment: Binding affinity to human SMARCA4 bromodomain assessed as residual activity at 300 nM by BROMOscan method relative to control
[15] = target: Bromodomain-containing protein 3 (Homo sapiens, UniProt Q15059); experiment: Binding affinity to human BRD3 bromodomain 2 assessed as dissociation constant by BROMOscan method
[16] = target: T1, Bromodomain-containing protein 4; experiment: Displacement of Alexafluor 647-JQ1 from GST-BRD4 BD1 BD2 (44 to 460 residues) (unknown origin) incubated for 60 mins by fluorescence polarization assay
SK-BR-3 [17] = experiment: Antiproliferative activity against human SK-BR-3 cells expressing BRD2 assessed as inhibition of colony formation at 0.01 to 10 uM measured after 14 to 21 days by alamarBlue based colony formation assay; assay type: functional, cell-based; conditions: dose 0.01-10 µM, time 14-21 day

logD [1]: 3
Activity [3]: 75%
Kd [4]: 0.2 µM
Activity [5]: 73%
Activity [6]: 31%
Kd [7]: 0.158 µM
Kd [8]: > 0.316 µM
Activity [9]: 82%
Activity [10]: 86%
Activity (Homo sapiens [12]): 0%
Activity (Protein polybromo-1): 80%
Kd [13]: 0.00794 µM
Activity [14]: 80%
Kd [15]: 0.2 µM
IC50 [16]: 20 µM
Structure (SMILES): Cc1nnc2c(NC3CCN(CC(C)(C)F)CC3)cc(C(=O)N3[C@@H]4c5ccccc5C[C@H]3C(=O)N[C@@H]4C(C)C)nn12
Activity (SK-BR-3 [2]): Dose-Dependent Effect
Activity (MDA-MB-468): Dose-Dependent Effect
Ratio IC50 (Homo sapiens [11]): 20
Activity (SK-BR-3 [17]): inactive
